Results from DBAASP.
Values after ≈ are worked out from the molar mass of the structure shown. One block for each molecule: values may come before it.

Experiments:
Test in all cases: ≥ marks a high value that may be exact or a test limit, other limits are often not marked, values filed in µg/mL are converted to µM
[1] = test system: Escherichia coli ATCC 25922
[2] = test system: Staphylococcus aureus LAC
[3] = test system: Candida albicans NCTC 1467
[4] = test system: Enterococcus faecalis NCTC 12697
[5] = test system: Escherichia coli NCTC 10418
[6] = test system: Pseudomonas aeruginosa ATCC 27853
[7] = test system: Staphylococcus aureus ATCC 12493
[8] = test system: Staphylococcus aureus NCTC 10788
[9] = test system: Bacillus subtilis
[10] = test system: Escherichia coli W160-37
[11] = test system: Pseudomonas putida NCIM 2102
[12] = test system: Staphylococcus aureus 8530
[13] = test system: Aspergillus flavus KCTC 6905
[14] = test system: Candida albicans CCARM 14001
[15] = test system: Candida albicans CCARM 14004
[16] = test system: Candida albicans CCARM 14007
[17] = test system: Candida albicans CCARM 14020
[18] = test system: Candida albicans KCTC 7270
[19] = test system: Candida krusei CCARM 14017
[20] = test system: Candida parapsilosis CCARM 14016
[21] = test system: Colletotrichum gloeosporioides KCTC 6169
[22] = test system: Fusarium graminearum KCTC 16656
[23] = test system: Fusarium oxysporum KCTC 16909
[24] = test system: Fusarium solani KCTC 6326
[25] = test system: Fusarium verticillioides KCTC 6149
[26] = test system: Trichoderma virens KCTC 16924
[27] = test system: Trichoderma viride KCTC 16992
[28] = test system: Trichophyton rubrum KCTC 6345
[29] = test system: Bacillus subtilis KCTC 3068
[30] = test system: Enterococcus faecium ATCC 51559
[31] = test system: Pseudomonas aeruginosa CCARM 2095
[32] = test system: Pseudomonas aeruginosa CCARM 2109
[33] = test system: Pseudomonas aeruginosa KCTC 1637
[34] = test system: Salmonella typhimurium KCTC 1926
[35] = test system: Staphylococcus aureus CCARM 3089
[36] = test system: Staphylococcus aureus CCARM 3090
[37] = test system: Staphylococcus aureus CCARM 3095
[38] = test system: Staphylococcus epidermidis KCTC 1917
[39] = test system: Bacillus subtilis KCTC 1998
[40] = test system: Escherichia coli CCARM 1229
[41] = test system: Escherichia coli CCARM 1238
[42] = test system: Listeria monocytogenes KCTC 3710
[43] = test system: Pseudomonas aeruginosa 4007
[44] = test system: Pseudomonas aeruginosa 4891
[45] = test system: Staphylococcus aureus ATCC 25923
[46] = test system: Staphylococcus aureus CCARM 3518
[47] = test system: Trichosporon beigelii KCTC 7707

MIC [1]: > 138 µM
MIC [2]: ≥ 138 µM
Compound: C[C@H](N)C(=O)N[C@@H](C)C(=O)N[C@@H](C)C(=O)N[C@@H](C)C(=O)N[C@@H](CCCN=C(N)N)C(=O)N[C@@H](CCCN=C(N)N)C(=O)N[C@@H](CCCN=C(N)N)C(=O)N[C@@H](CCCN=C(N)N)C(=O)O [AAAARRRR]

MIC [3]: ≥ 256 µM
MIC [4]: ≥ 128 µM
MIC [5]: ≥ 32 µM
MIC [6]: > 512 µM
MIC [7]: ≥ 256 µM
MIC [8]: ≥ 32 µM
Compound: CC[C@H](C)[C@H](NC(=O)CN)C(=O)N[C@@H](CCSC)C(=O)N[C@@H](CC(=O)O)C(=O)N[C@H](C(=O)N[C@H](C(=O)N[C@@H](CCCCN)C(=O)N[C@@H](CC(N)=O)C(=O)N[C@@H](C)C(=O)N[C@@H](C)C(=O)N[C@@H](CCCCN)C(=O)N[C@@H](CC(N)=O)C(=O)N[C@@H](CC(C)C)C(=O)N[C@@H](C)C(=O)NCC(=O)N[C@@H](CCC(N)=O)C(=O)N[C@@H](CC(C)C)C(=O)N[C@@H](CC(C)C)C(=O)N[C@@H](CC(=O)O)C(=O)N[C@@H](CCCCN)C(=O)N[C@@H](CC(C)C)C(=O)N[C@@H](CCCCN)C(=O)N[C@H]1CSSC[C@@H](C(=O)O)NC(=O)[C@H](C)NC(=O)[C@H]([C@@H](C)O)NC(=O)[C@H]([C@@H](C)CC)NC(=O)[C@H](CCCCN)NC1=O)C(C)C)[C@@H](C)O [GIMDTVKNAAKNLAGQLLDKLKCKITAC]

MIC [9]: 1.57 µM (≈ 2.83 µg/mL)
MIC [10]: 6.81 µM (≈ 12.2 µg/mL)
MIC [11]: 30.5 µM (≈ 54.7 µg/mL)
MIC [12]: 3.93 µM (≈ 7.07 µg/mL)
Compound: CC[C@H](C)[C@H](NC(=O)[C@H](CC(C)C)NC(=O)[C@H](CCCCN)NC(=O)[C@H](CCCCN)NC(=O)[C@H](CC(C)C)NC(=O)CN)C(=O)N[C@@H](CO)C(=O)N[C@@H](Cc1c[nH]c2ccccc12)C(=O)N[C@H](C(=O)N[C@@H](CCCCN)C(=O)N[C@@H](CCCN=C(N)N)C(=O)N[C@@H](C)C(=O)N[C@@H](C)C(=O)N[C@@H](CCC(N)=O)C(=O)N[C@@H](CCC(N)=O)C(=O)NCC(N)=O)[C@@H](C)CC [GLKKLISWIKRAAQQG]

MIC [13]: 4 µM (≈ 9.51 µg/mL)
MIC [14]: 16 µM (≈ 38 µg/mL)
MIC [15]: 16 µM (≈ 38 µg/mL)
MIC [16]: 16 µM (≈ 38 µg/mL)
MIC [17]: 16 µM (≈ 38 µg/mL)
MIC [18]: 16 µM (≈ 38 µg/mL)
MIC [19]: 4 µM (≈ 9.51 µg/mL)
MIC [20]: 16 µM (≈ 38 µg/mL)
MIC [21]: 1 µM (≈ 2.38 µg/mL)
MIC [22]: 8 µM (≈ 19 µg/mL)
MIC [23]: 2 µM (≈ 4.76 µg/mL)
MIC [24]: 2 µM (≈ 4.76 µg/mL)
MIC [25]: 2 µM (≈ 4.76 µg/mL)
MIC [26]: 8 µM (≈ 19 µg/mL)
MIC [27]: 2 µM (≈ 4.76 µg/mL)
MIC [28]: 8 µM (≈ 19 µg/mL)
Compound: NCCCC[C@H](NC(=O)[C@H](CCCCN)NC(=O)[C@H](Cc1cnc[nH]1)NC(=O)[C@H](CCCCN)NC(=O)[C@H](CCCCN)NC(=O)[C@H](Cc1cnc[nH]1)NC(=O)[C@H](CCCCN)NC(=O)[C@H](CCCCN)NC(=O)[C@H](Cc1cnc[nH]1)NC(=O)[C@H](CCCCN)NC(=O)[C@H](CCCCN)NC(=O)[C@H](Cc1cnc[nH]1)NC(=O)[C@H](CCCCN)NC(=O)[C@H](CCCCN)NC(=O)[C@H](Cc1cnc[nH]1)NC(=O)[C@H](CCCCN)NC(=O)[C@H](CCCCN)NC(=O)[C@@H](N)Cc1cnc[nH]1)C(N)=O [HKKHKKHKKHKKHKKHKK]

MIC [29]: 8 µM (≈ 18.9 µg/mL)
MIC [30]: 8 µM (≈ 18.9 µg/mL)
MIC [31]: 4 µM (≈ 9.43 µg/mL)
MIC [32]: 16 µM (≈ 37.7 µg/mL)
MIC [33]: 16 µM (≈ 37.7 µg/mL)
MIC [34]: 4 µM (≈ 9.43 µg/mL)
MIC [35]: 8 µM (≈ 18.9 µg/mL)
MIC [36]: 8 µM (≈ 18.9 µg/mL)
MIC [37]: 8 µM (≈ 18.9 µg/mL)
MIC [38]: 8 µM (≈ 18.9 µg/mL)
Compound: CC[C@H](C)[C@H](NC(=O)[C@H](Cc1ccccc1)NC(=O)[C@H](CCCN=C(N)N)NC(=O)[C@@H](N)CCCCN)C(=O)N[C@@H](CCCCN)C(=O)N[C@@H](Cc1c[nH]c2ccccc12)C(=O)N[C@@H](Cc1ccc(O)cc1)C(=O)N[C@@H](CC(N)=O)C(=O)N[C@@H](C)C(=O)N[C@@H](Cc1c[nH]c2ccccc12)C(=O)N[C@@H](CC(N)=O)C(=O)N[C@@H](CCC(=O)O)C(=O)N[C@@H](CCCCN)C(=O)N[C@@H](CCCN=C(N)N)C(=O)N[C@@H](CCCN=C(N)N)C(=O)N[C@H](C(=O)N[C@@H](Cc1ccc(O)cc1)C(N)=O)C(C)C [KRFIKWYNAWNEKRRVY]

MIC [39]: ≥ 32 µM
MIC [18]: ≥ 32 µM
MIC [1]: 16 µM (≈ 47 µg/mL)
MIC [40]: ≥ 32 µM
MIC [41]: ≥ 32 µM
MIC [42]: ≥ 32 µM
MIC [43]: ≥ 64 µM
MIC [44]: ≥ 64 µM
MIC [6]: 16 µM (≈ 47 µg/mL)
MIC [34]: 16 µM (≈ 47 µg/mL)
MIC [45]: 32 µM (≈ 93.9 µg/mL)
MIC [36]: ≥ 32 µM
MIC [46]: ≥ 32 µM
MIC [47]: ≥ 32 µM
Compound: CC[C@H](C)[C@H](NC(=O)CNC(=O)[C@H](CCC(N)=O)NC(=O)[C@H](Cc1ccccc1)NC(=O)[C@@H](NC(=O)[C@H](CCCCN)NC(=O)[C@H](CCCCN)NC(=O)[C@H](CC(C)C)NC(=O)[C@H](C)NC(=O)[C@H](CC(N)=O)NC(=O)[C@H](CC(C)C)NC(=O)[C@@H](N)Cc1c[nH]c2ccccc12)C(C)C)C(=O)N[C@@H](Cc1cnc[nH]1)C(=O)N[C@@H](CCC(=O)O)C(=O)N[C@@H](C)C(=O)N[C@H](C(=O)N[C@@H](CCCCN)C(=O)N[C@@H](CC(C)C)C(=O)N[C@H](C(=O)N[C@@H](Cc1c[nH]c2ccccc12)C(=O)N[C@@H](CC(N)=O)C(=O)N[C@@H](Cc1c[nH]c2ccccc12)C(=O)N[C@H](C(=O)N[C@@H](CCC(N)=O)C(N)=O)C(C)C)[C@@H](C)CC)[C@@H](C)CC [WLNALKKVFQGIHEAIKLIWNWVQ]
